Read-outs that look alike come from different tables or passages of the source.
Experiments:
kinases (468) [1] = target: kinases (468) (Homo sapiens, UniProt P12931); settings: kinase SRC (Entrez SRC); compound concentration 1000 nM
kinases (468) [2] = target: kinases (468) (Homo sapiens, UniProt Q86UX6); settings: kinase YANK3 (Entrez STK32C); compound concentration 1000 nM
kinases (468) [3] = target: kinases (468) (Homo sapiens, UniProt P54753); settings: EPHB3; 1000 nM
kinases (468) [4] = target: kinases (468) (Homo sapiens, UniProt P00533, G719S); settings: EGFR(G719S); 1000 nM
kinases (468) [5] = target: kinases (468) (Homo sapiens, UniProt Q99640); settings: PKMYT1; 1000 nM
kinases (468) [6] = target: kinases (468) (Homo sapiens, UniProt Q8TD08); settings: ERK8 (MAPK15); 1000 nM
kinases (468) [7] = target: kinases (468) (Homo sapiens, UniProt P11362); settings: FGFR1; 1000 nM
kinases (468) [8] = target: kinases (468) (Homo sapiens, UniProt P51451); settings: BLK; 1000 nM
kinases (468) [9] = target: kinases (468) (Homo sapiens, UniProt P36888, K663Q); settings: FLT3(K663Q); 1000 nM
kinases (468) [10] = target: kinases (468) (Homo sapiens, UniProt P00519, Q252H); settings: 1000 nM
kinases (468) [11] = target: kinases (468) (Homo sapiens, UniProt Q9UPZ9); settings: ICK; 1000 nM
kinases (468) [12] = target: kinases (468) (Homo sapiens, UniProt P16591); settings: FER; 1000 nM
kinases (468) [13] = target: kinases (468) (Homo sapiens, UniProt Q6ZWH5); settings: NEK10; 1000 nM
kinases (468) [14] = target: kinases (468) (Homo sapiens, UniProt Q9UBF8); settings: PIK4CB (PI4KB); 1000 nM
kinases (468) [15] = target: kinases (468) (Homo sapiens, UniProt P31152); settings: ERK4 (MAPK4); 1000 nM
kinases (468) [16] = target: kinases (468) (Homo sapiens, UniProt P52333); settings: JAK3(JH1domain-catalytic); 1000 nM
kinases (468) [17] = target: kinases (468) (Homo sapiens, UniProt P21860); settings: ERBB3; 1000 nM
kinases (468) [18] = target: kinases (468) (Homo sapiens, UniProt Q96Q40); settings: PFTAIRE2 (CDK15); 1000 nM
kinases (468) [19] = target: kinases (468) (Homo sapiens, UniProt Q04759); settings: PRKCQ; 1000 nM
kinases (468) [20] = target: kinases (468) (Homo sapiens, UniProt P48729); settings: CSNK1A1; 1000 nM
kinases (468) [21] = target: kinases (468) (Homo sapiens, UniProt Q8IU85); settings: CAMK1D; 1000 nM
kinases (468) [22] = target: kinases (468) (Homo sapiens, UniProt O43318); settings: kinase TAK1 (Entrez MAP3K7); compound concentration 1000 nM
kinases (468) [23] = target: kinases (468) (Homo sapiens, UniProt P42336, E545K); settings: PIK3CA(E545K); 1000 nM
kinases (468) [24] = target: kinases (468) (Homo sapiens, UniProt Q8IYT8); settings: kinase ULK2 (Entrez ULK2); compound concentration 1000 nM
kinases (468) [25] = target: kinases (468) (Homo sapiens, UniProt P11802); settings: 1000 nM
kinases (468) [26] = target: kinases (468) (Homo sapiens, UniProt Q9UKE5); settings: kinase TNIK (Entrez TNIK); compound concentration 1000 nM
kinases (468) [27] = target: kinases (468) (Homo sapiens, UniProt P17948); settings: FLT1; 1000 nM
kinases (468) [28] = target: kinases (468) (Homo sapiens, UniProt P00519, H396P); settings: 1000 nM
kinases (468) [29] = target: kinases (468) (Homo sapiens, UniProt O00141); settings: kinase SGK (Entrez SGK1); compound concentration 1000 nM
kinases (468) [30] = target: kinases (468) (Homo sapiens, UniProt P10721, D816V); settings: KIT(D816V); 1000 nM
kinases (468) [31] = target: kinases (468) (Homo sapiens, UniProt Q9HBH9); settings: MKNK2; 1000 nM
kinases (468) [32] = target: kinases (468) (Homo sapiens, UniProt Q9Y5S2); settings: MRCKB (CDC42BPB); 1000 nM
kinases (468) [33] = target: kinases (468) (Homo sapiens, UniProt Q8TBX8); settings: PIP5K2C (PIP4K2C); 1000 nM
Sequence of kinases (468) (Homo sapiens, UniProt Q8TBX8) (Q8TBX8 whole entry): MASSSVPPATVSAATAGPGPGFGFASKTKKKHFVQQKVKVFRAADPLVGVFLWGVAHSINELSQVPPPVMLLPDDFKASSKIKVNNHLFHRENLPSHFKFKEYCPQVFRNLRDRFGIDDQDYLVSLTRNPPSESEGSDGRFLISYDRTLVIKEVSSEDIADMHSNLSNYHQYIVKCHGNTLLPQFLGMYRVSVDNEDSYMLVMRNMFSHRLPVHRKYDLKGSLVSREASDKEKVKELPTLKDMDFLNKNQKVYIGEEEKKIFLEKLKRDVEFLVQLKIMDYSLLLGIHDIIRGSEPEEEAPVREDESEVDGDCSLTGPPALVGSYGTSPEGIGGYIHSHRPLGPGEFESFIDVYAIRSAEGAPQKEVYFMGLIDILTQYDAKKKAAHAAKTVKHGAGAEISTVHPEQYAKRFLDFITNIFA

Sequence of kinases (468) (Homo sapiens, UniProt P11802) (P11802 whole entry): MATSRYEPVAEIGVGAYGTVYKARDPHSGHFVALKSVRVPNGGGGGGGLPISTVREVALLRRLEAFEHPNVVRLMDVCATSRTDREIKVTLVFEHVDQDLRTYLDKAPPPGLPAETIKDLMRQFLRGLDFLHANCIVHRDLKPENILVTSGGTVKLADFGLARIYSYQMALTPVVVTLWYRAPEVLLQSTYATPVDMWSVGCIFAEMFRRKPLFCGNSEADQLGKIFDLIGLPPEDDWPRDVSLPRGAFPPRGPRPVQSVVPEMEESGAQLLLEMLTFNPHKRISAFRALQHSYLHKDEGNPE
Sequence of kinases (468) (Homo sapiens, UniProt Q86UX6) (Q86UX6 whole entry): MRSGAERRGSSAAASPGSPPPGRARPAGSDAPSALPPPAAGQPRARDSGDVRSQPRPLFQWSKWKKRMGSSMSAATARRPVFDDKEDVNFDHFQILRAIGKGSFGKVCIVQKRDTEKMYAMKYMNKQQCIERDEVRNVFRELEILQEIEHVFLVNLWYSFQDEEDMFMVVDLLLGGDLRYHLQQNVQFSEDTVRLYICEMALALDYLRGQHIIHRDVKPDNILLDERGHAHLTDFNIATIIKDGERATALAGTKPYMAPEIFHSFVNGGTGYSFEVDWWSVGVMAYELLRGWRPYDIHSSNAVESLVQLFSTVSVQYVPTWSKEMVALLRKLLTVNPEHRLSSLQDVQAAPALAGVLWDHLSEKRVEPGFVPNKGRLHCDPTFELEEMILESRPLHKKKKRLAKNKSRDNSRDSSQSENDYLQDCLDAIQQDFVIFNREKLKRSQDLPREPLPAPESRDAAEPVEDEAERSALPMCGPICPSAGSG
Sequence of kinases (468) (Homo sapiens, UniProt P54753) (P54753 34-998): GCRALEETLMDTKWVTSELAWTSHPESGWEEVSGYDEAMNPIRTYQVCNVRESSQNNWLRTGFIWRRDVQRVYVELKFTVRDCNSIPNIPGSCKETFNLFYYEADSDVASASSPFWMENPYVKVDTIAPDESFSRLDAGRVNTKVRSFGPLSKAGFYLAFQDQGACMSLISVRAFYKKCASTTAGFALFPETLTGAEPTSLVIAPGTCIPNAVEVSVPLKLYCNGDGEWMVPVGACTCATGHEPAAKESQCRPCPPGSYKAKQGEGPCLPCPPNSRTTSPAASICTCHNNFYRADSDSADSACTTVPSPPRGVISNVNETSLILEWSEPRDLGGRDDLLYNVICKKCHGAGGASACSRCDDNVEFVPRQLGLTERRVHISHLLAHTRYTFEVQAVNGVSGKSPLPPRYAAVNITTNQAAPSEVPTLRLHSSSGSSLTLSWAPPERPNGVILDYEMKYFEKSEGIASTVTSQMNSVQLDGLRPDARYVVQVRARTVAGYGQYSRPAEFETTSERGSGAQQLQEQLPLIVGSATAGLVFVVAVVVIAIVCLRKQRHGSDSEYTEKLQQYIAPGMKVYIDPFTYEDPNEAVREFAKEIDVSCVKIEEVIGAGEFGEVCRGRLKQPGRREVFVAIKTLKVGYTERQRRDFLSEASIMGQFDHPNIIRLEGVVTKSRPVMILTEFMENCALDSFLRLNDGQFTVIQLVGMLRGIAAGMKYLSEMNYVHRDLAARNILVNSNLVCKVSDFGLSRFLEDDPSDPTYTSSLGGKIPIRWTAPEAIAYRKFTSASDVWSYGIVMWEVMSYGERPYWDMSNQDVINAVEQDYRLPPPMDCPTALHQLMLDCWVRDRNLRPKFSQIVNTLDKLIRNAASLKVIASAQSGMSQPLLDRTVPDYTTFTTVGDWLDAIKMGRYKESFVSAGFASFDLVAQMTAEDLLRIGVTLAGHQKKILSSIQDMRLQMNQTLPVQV
Sequence of kinases (468) (Homo sapiens, UniProt P11362) (P11362 22-822): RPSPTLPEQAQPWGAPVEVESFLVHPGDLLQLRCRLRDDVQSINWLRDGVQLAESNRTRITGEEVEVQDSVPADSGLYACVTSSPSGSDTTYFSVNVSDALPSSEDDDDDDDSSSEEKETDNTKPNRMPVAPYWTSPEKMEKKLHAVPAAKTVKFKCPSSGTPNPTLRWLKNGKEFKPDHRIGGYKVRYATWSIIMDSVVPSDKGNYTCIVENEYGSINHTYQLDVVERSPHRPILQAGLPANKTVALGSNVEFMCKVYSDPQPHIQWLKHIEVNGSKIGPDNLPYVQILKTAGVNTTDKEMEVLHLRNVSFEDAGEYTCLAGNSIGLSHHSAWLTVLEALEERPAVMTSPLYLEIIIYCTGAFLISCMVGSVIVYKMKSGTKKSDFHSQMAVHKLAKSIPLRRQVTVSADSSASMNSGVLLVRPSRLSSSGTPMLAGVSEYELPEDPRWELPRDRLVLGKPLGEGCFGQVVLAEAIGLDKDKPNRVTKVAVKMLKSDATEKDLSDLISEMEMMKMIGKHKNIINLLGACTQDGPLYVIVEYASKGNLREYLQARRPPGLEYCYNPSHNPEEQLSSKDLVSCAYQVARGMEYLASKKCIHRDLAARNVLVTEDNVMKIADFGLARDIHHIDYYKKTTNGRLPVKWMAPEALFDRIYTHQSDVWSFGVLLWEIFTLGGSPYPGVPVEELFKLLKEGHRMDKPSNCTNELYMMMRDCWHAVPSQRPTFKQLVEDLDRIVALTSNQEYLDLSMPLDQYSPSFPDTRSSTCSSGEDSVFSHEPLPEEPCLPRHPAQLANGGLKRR
Sequence of kinases (468) (Homo sapiens, UniProt P48729) (P48729 whole entry): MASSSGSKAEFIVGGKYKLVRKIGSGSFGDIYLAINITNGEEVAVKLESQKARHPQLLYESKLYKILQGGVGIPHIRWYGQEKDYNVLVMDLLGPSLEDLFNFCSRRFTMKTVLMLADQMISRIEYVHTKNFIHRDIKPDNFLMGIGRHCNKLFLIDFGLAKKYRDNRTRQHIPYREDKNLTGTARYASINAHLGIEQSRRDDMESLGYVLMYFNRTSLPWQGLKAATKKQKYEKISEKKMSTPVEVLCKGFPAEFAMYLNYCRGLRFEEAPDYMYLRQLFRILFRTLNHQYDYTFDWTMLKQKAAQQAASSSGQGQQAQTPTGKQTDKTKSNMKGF
Sequence of kinases (468) (Homo sapiens, UniProt P21860) (P21860 20-1342): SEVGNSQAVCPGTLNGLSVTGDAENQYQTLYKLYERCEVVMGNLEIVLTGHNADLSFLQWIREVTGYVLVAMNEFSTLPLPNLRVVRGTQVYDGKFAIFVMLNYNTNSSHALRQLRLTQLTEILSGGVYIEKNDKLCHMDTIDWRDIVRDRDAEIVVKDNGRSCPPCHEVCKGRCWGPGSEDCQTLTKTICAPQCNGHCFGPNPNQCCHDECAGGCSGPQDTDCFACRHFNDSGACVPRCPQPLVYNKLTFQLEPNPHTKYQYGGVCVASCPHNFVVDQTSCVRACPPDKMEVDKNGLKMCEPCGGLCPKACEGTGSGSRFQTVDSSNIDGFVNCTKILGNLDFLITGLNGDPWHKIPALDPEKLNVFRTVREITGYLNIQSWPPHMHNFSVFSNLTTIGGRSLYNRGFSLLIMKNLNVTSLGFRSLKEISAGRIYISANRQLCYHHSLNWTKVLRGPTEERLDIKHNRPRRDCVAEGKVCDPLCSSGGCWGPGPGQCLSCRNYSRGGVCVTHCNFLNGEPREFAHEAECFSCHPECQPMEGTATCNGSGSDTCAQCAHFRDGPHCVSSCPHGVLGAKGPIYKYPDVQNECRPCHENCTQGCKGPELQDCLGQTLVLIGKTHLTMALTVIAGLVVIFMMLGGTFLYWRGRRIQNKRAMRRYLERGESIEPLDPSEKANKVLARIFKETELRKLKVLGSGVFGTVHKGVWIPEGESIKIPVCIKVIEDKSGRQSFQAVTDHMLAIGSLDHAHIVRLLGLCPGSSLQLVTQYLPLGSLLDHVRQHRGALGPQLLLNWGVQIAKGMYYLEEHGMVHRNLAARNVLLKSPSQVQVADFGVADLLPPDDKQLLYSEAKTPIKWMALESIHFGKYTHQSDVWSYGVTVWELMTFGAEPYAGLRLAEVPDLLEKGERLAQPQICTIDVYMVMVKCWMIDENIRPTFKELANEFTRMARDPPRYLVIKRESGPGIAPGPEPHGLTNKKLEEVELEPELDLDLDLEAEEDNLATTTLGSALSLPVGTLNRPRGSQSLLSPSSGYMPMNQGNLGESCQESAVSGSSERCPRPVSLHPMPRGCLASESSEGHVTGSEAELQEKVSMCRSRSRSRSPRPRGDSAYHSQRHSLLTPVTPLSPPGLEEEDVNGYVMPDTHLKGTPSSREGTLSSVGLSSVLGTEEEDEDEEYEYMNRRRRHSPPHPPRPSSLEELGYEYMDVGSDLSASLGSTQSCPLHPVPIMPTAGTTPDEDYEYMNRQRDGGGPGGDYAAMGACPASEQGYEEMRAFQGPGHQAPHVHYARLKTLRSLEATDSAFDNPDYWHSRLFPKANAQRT
Sequence of kinases (468) (Homo sapiens, UniProt Q8IU85) (Q8IU85 whole entry): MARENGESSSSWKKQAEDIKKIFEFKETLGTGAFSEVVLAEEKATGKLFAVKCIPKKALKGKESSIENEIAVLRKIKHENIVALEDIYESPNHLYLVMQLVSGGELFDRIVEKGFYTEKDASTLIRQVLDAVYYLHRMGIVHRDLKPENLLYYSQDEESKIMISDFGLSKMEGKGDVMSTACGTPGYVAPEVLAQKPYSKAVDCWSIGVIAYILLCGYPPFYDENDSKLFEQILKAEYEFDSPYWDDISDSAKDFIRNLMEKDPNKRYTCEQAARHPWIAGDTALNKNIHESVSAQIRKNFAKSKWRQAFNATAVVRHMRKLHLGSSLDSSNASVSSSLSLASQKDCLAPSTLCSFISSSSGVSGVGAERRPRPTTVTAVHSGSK

For C[C@H]1C[C@@H](O)CN(c2ncc(Cl)c(Nc3ccc4c(c3)c3c(c(=O)n4C)OCC(F)(F)[C@H](C4CC4)N3)n2)C1 [CCT373566_9A], the “Percent Control” value (kinases (468) [1]) was 100%, the “Percent Control” value (kinases (468) [2]) was 100% and the “Percent Control” value (kinases (468) [3]) was 100%. For the same compound, the “Percent Control” value (kinases (468) [4]) was 100%, the “Percent Control” value (kinases (468) [5]) was 100% and the “Percent Control” value (kinases (468) [6]) was 95%. The “Percent Control” value (kinases (468) [7]) was 100%, the “Percent Control” value (kinases (468) [8]) was 99% and the “Percent Control” value (kinases (468) [9]) was 97%. For the same compound, the “Percent Control” value (kinases (468) [10]; ABL1(Q252H)-nonphosphorylated) was 94%, the “Percent Control” value (kinases (468) [10]; ABL1(Q252H)-phosphorylated) was 98% and the “Percent Control” value (kinases (468) [11]) was 100%. The “Percent Control” value (kinases (468) [12]) was 100%, the “Percent Control” value (kinases (468) [13]) was 99% and the “Percent Control” value (kinases (468) [14]) was 94%. The “Percent Control” value (kinases (468) [15]) was 100%, the “Percent Control” value (kinases (468) [16]) was 78% and the “Percent Control” value (kinases (468) [17]) was 85%. For the same compound, the “Percent Control” value (kinases (468) [18]) was 98%, the “Percent Control” value (kinases (468) [19]) was 100% and the “Percent Control” value (kinases (468) [20]) was 100%. For the same compound, the “Percent Control” value (kinases (468) [21]) was 92%, the “Percent Control” value (kinases (468) [22]) was 100% and the “Percent Control” value (kinases (468) [23]) was 95%. The “Percent Control” value (kinases (468) [24]) was 100%, the “Percent Control” value (kinases (468) [25]; CDK4-cyclinD1) was 94% and the “Percent Control” value (kinases (468) [25]; CDK4-cyclinD3) was 95%. The “Percent Control” value (kinases (468) [25]; CDK4) was 100%, the “Percent Control” value (kinases (468) [26]) was 94% and the “Percent Control” value (kinases (468) [27]) was 100%. The “Percent Control” value (kinases (468) [28]; ABL1(H396P)-nonphosphorylated) was 83%, the “Percent Control” value (kinases (468) [28]; ABL1(H396P)-phosphorylated) was 94% and the “Percent Control” value (kinases (468) [29]) was 98%. For the same compound, the “Percent Control” value (kinases (468) [30]) was 100%, the “Percent Control” value (kinases (468) [31]) was 100% and the “Percent Control” value (kinases (468) [32]) was 100%. The “Percent Control” value (kinases (468) [33]) was 82%.

Source: paper PMC9234961 (Journal of Medicinal Chemistry, 2022)
